Test results published in ChEMBL document CHEMBL5376011, “Discovery of Anti-Hypercholesterolemia Agents Targeting LXRα from Marine Microorganism-Derived Natural Products” (J Nat Prod, 2024).
pKd: −log10 of the molar value. Active and inactive are the calls of the source.

Columns and labels:
[1] = tested on: Mus musculus; assay: Antihypercholesterolemic activity against high cholesterol diet fed C57BL/6J mouse assessed as reduction in hepatocyte lysis necrosis at 300 microg/kg, ip administered every 2 days for 15 days by Oil red staining based analysis; assay type: functional, organism-based; conditions: dose 300.0 µg/kg, time 15.0 day
[2] = tested on: Mus musculus; assay: Antihypercholesterolemic activity against high cholesterol diet induced C57BL/6J mouse assessed as reduction in serum aspartate aminotransferase level at 300 microg/kg, ip administered every 2 days for 15 days; assay type: functional, organism-based; conditions: dose 300.0 µg/kg, time 15.0 day
[3] = tested on: Mus musculus; assay: Antihypercholesterolemic activity against high cholesterol diet fed C57BL/6J mouse assessed as improvement in hepatocyte degeneration at 300 microg/kg, ip administered every 2 days for 15 days by H&E staining based analysis; assay type: functional, organism-based; conditions: dose 300.0 µg/kg, time 15.0 day
[4] = tested on: Mus musculus; assay: Antihypercholesterolemic activity against high cholesterol diet fed C57BL/6J mouse assessed as reduction of fine vacuoles in the cytoplasm at 300 microg/kg, ip administered every 2 days for 15 days by Oil red staining based analysis; assay type: functional, organism-based; conditions: dose 300.0 µg/kg, time 15.0 day
[5] = tested on: Mus musculus; assay: Antihypercholesterolemic activity against high cholesterol diet fed LXRalpha knockout C57BL/6J mouse assessed as reduction in serum total cholesterol level at 300 microg/kg, ip administered every 2 days for 15 days; assay type: functional, organism-based; conditions: dose 300.0 µg/kg, time 15.0 day
[6] = tested on: Mus musculus; assay: Antihypercholesterolemic activity against high cholesterol diet fed LXRalpha knockout C57BL/6J mouse assessed as reduction in serum triglycerides level at 300 microg/kg, ip administered every 2 days for 15 days; assay type: functional, organism-based; conditions: dose 300.0 µg/kg, time 15.0 day
[7] = tested on: Mus musculus; assay: Antihypercholesterolemic activity against high cholesterol diet fed C57BL/6J mouse assessed as reduction in degree of hepatic steatosis at 300 microg/kg, ip administered every 2 days for 15 days by H&E staining based analysis; assay type: functional, organism-based; conditions: dose 300.0 µg/kg, time 15.0 day
[8] = tested on: Mus musculus; assay: Antihypercholesterolemic activity against high cholesterol diet fed C57BL/6J mouse assessed as improvement in hepatocyte liposis at 300 microg/kg, ip administered every 2 days for 15 days by Oil red staining based analysis; assay type: functional, organism-based; conditions: dose 300.0 µg/kg, time 15.0 day
[9] = tested on: Mus musculus; assay: Antihypercholesterolemic activity against high cholesterol diet fed LXRalpha knockout C57BL/6J mouse assessed as improvement in hepatocellular degeneration at 300 microg/kg, ip administered every 2 days for 15 days by Oil red staining based analysis; assay type: functional, organism-based; conditions: dose 300.0 µg/kg, time 15.0 day
[10] = tested on: Mus musculus; assay: Antihypercholesterolemic activity against high cholesterol diet fed LXRalpha knockout C57BL/6J mouse assessed as reduction in serum aspartate aminotransferase level at 300 microg/kg, ip administered every 2 days for 15 days; assay type: functional, organism-based; conditions: dose 300.0 µg/kg, time 15.0 day
[11] = tested on: Mus musculus; assay: Antihypercholesterolemic activity against high cholesterol diet fed C57BL/6J mouse assessed as improvement in hepatocyte liposis at 300 microg/kg, ip administered every 2 days for 15 days by H&E staining based analysis; assay type: functional, organism-based; conditions: dose 300.0 µg/kg, time 15.0 day
[12] = tested on: Mus musculus; assay: Antihypercholesterolemic activity against high cholesterol diet fed C57BL/6J mouse assessed as reduction of fine vacuoles in the cytoplasm at 300 microg/kg, ip administered every 2 days for 15 days by H&E staining based analysis; assay type: functional, organism-based; conditions: dose 300.0 µg/kg, time 15.0 day
[13] = tested on: Mus musculus; assay: Antihypercholesterolemic activity against high cholesterol diet induced C57BL/6J mouse assessed as reduction in plasma low-density lipoprotein cholesterol level at 300 microg/kg, ip administered every 2 days for 15 days; assay type: functional, organism-based; conditions: dose 300.0 µg/kg, time 15.0 day
[14] = tested on: Mus musculus; assay: Antihypercholesterolemic activity against high cholesterol diet fed LXRalpha knockout C57BL/6J mouse assessed as improvement in hepatic steatosis at 300 microg/kg, ip administered every 2 days for 15 days by Oil red staining based analysis; assay type: functional, organism-based; conditions: dose 300.0 µg/kg, time 15.0 day
[15] = target: T1, Oxysterols receptor LXR-alpha (Homo sapiens) (UniProt Q13133); assay: Agonist activity at LXRalpha in human HepG2 cells assessed as upregulation of ABCA1 protein expression level at 25 uM incubated for 24 hrs by Western blot analysis; assay type: cell-based; conditions: filed as agonist
T1 sequence (whole entry): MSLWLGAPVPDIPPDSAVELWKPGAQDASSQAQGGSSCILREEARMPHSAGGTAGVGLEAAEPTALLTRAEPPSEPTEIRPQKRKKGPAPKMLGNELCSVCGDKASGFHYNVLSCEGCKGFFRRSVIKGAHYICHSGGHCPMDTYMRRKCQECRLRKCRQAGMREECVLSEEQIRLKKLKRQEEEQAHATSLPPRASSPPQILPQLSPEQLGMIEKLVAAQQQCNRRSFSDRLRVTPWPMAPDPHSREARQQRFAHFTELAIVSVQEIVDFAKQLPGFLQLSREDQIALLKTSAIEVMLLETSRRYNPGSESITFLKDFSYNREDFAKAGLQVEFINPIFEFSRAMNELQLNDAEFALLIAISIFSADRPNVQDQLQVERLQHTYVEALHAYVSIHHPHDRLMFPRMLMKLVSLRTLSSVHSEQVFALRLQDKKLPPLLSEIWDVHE

[16] = tested on: HepG2; assay: (§1) Improvement of lipid metabolism in palmitic acid and oleic acid induced human HepG2 cell model of hepatic steatosis assessed as reduction in total cellular cholesterol level at 25 uM preincubated with palmitic acid and oleic acid for 48 hrs followed by compound addition and measured after 24 hrs; assay type: functional, cell-based
[17] = tested on: Mus musculus; assay: Antihypercholesterolemic activity against high cholesterol diet fed C57BL/6J mouse assessed as reduction in degree of hepatic steatosis at 300 microg/kg, ip administered every 2 days for 15 days by Oil red staining based analysis; assay type: functional, organism-based; conditions: dose 300.0 µg/kg, time 15.0 day
[18] = tested on: Mus musculus; assay: Antihypercholesterolemic activity against high cholesterol diet fed LXRalpha knockout C57BL/6J mouse assessed as improvement in liver lipid droplet accumulation at 300 microg/kg, ip administered every 2 days for 15 days by H&E staining based analysis; assay type: functional, organism-based; conditions: dose 300.0 µg/kg, time 15.0 day
[19] = tested on: Mus musculus; assay: Antihypercholesterolemic activity against high cholesterol diet fed LXRalpha knockout C57BL/6J mouse assessed as upregulation in ABCA1 protein level at 300 microg/kg, ip administered every 2 days for 15 days by Western blot analysis; assay type: functional, organism-based; conditions: dose 300.0 µg/kg, time 15.0 day
[20] = tested on: HepG2; assay: Effect on LXRbeta mRNA expression in human HepG2 cells at 25 uM incubated for 24 hrs by RT-qPCR analysis; assay type: functional, cell-based
[21] = tested on: Mus musculus; assay: Antihypercholesterolemic activity against high cholesterol diet fed C57BL/6J mouse assessed as improvement in hepatocyte degeneration at 300 microg/kg, ip administered every 2 days for 15 days by Oil red staining based analysis; assay type: functional, organism-based; conditions: dose 300.0 µg/kg, time 15.0 day
[22] = tested on: Mus musculus; assay: Antihypercholesterolemic activity against high cholesterol diet fed LXRalpha knockout C57BL/6J mouse assessed as reduction in serum high density lipoprotein cholesterol level at 300 microg/kg, ip administered every 2 days for 15 days; assay type: functional, organism-based; conditions: dose 300.0 µg/kg, time 15.0 day
[23] = target: T2, Oxysterols receptor LXR-alpha (Homo sapiens, UniProt Q13133); assay: Binding affinity to full length human LXRalpha assessed as dissociation constant by SPR analysis
T2 sequence (Q13133 whole entry): T1 sequence (whole entry)

[24] = tested on: Mus musculus; assay: Antihypercholesterolemic activity against high cholesterol diet fed LXRalpha knockout C57BL/6J mouse assessed as improvement in hepatic steatosis at 300 microg/kg, ip administered every 2 days for 15 days by H&E staining based analysis; assay type: functional, organism-based; conditions: dose 300.0 µg/kg, time 15.0 day
[25] = tested on: Mus musculus; assay: Antihypercholesterolemic activity against high cholesterol diet fed C57BL/6J mouse assessed as reduction in FASN protein level at 300 microg/kg, ip administered every 2 days for 15 days by Western blot analysis; assay type: functional, organism-based; conditions: dose 300.0 µg/kg, time 15.0 day
[26] = tested on: Mus musculus; assay: Antihypercholesterolemic activity against high cholesterol diet fed LXRalpha knockout C57BL/6J mouse assessed as improvement in liver lipid droplet accumulation at 300 microg/kg, ip administered every 2 days for 15 days by Oil red staining based analysis; assay type: functional, organism-based; conditions: dose 300.0 µg/kg, time 15.0 day
[27] = tested on: Mus musculus; assay: Antihypercholesterolemic activity against high cholesterol diet fed LXRalpha knockout C57BL/6J mouse assessed as upregulation in CYP7A1 protein level at 300 microg/kg, ip administered every 2 days for 15 days by Western blot analysis; assay type: functional, organism-based; conditions: dose 300.0 µg/kg, time 15.0 day
[28] = tested on: Mus musculus; assay: Antihypercholesterolemic activity against high cholesterol diet induced C57BL/6J mouse assessed as reduction in hepatocyte damage at 300 microg/kg, ip administered every 2 days for 15 days; assay type: functional, organism-based; conditions: dose 300.0 µg/kg, time 15.0 day
[29] = tested on: Mus musculus; assay: Antihypercholesterolemic activity against high cholesterol diet fed LXRalpha knockout C57BL/6J mouse assessed as reduction in serum low density lipoprotein cholesterol level at 300 microg/kg, ip administered every 2 days for 15 days; assay type: functional, organism-based; conditions: dose 300.0 µg/kg, time 15.0 day
[30] = tested on: Mus musculus; assay: Antihypercholesterolemic activity against high cholesterol diet induced C57BL/6J mouse assessed as reduction in serum alanine aminotransferase level at 300 microg/kg, ip administered every 2 days for 15 days; assay type: functional, organism-based; conditions: dose 300.0 µg/kg, time 15.0 day
[31] = tested on: HepG2; assay: Effect on ABCG1 mRNA expression in human HepG2 cells at 25 uM incubated for 24 hrs by RT-qPCR analysis; assay type: functional, cell-based
[32] = tested on: Mus musculus; assay: Antihypercholesterolemic activity against high cholesterol diet fed C57BL/6J mouse assessed as reduction in hepatocyte lysis necrosis at 300 microg/kg, ip administered every 2 days for 15 days by H&E staining based analysis; assay type: functional, organism-based; conditions: dose 300.0 µg/kg, time 15.0 day
[33] = target: T1, Oxysterols receptor LXR-alpha (Homo sapiens); assay: Agonist activity at LXRalpha in human HepG2 cells assessed as upregulation of CYP7A1 protein expression level at 25 uM incubated for 24 hrs by Western blot analysis; assay type: cell-based; conditions: filed as agonist
[34] = tested on: Mus musculus; assay: Antihypercholesterolemic activity against high cholesterol diet fed LXRalpha knockout C57BL/6J mouse assessed as reduction in serum alanine aminotransferase level at 300 microg/kg, ip administered every 2 days for 15 days; assay type: functional, organism-based; conditions: dose 300.0 µg/kg, time 15.0 day
[35] = tested on: HepG2; assay: as §1, with “reduction in lipid droplets at 25” for “reduction in total cellular cholesterol level at 25”, “24 hrs by Oil Red O staining based analysis” for “24 hrs”; assay type: functional
[36] = tested on: Mus musculus; assay: Antihypercholesterolemic activity against high cholesterol diet fed C57BL/6J mouse assessed as reduction in SCD1 protein level at 300 microg/kg, ip administered every 2 days for 15 days by Western blot analysis; assay type: functional, organism-based; conditions: dose 300.0 µg/kg, time 15.0 day
[37] = tested on: Mus musculus; assay: Antihypercholesterolemic activity against high cholesterol diet fed LXRalpha knockout C57BL/6J mouse assessed as improvement in hepatocellular degeneration at 300 microg/kg, ip administered every 2 days for 15 days by H&E staining based analysis; assay type: functional, organism-based; conditions: dose 300.0 µg/kg, time 15.0 day
[38] = Cytotoxicity against human HepG2 cells assessed as reduction in cell viability incubated for 24 hrs by CCK8 assay; assay type: toxicity, cell-based
[39] = tested on: Mus musculus; assay: Antihypercholesterolemic activity against high cholesterol diet fed C57BL/6J mouse assessed as reduction in SREBP1 protein level at 300 microg/kg, ip administered every 2 days for 15 days by Western blot analysis; assay type: functional, organism-based; conditions: dose 300.0 µg/kg, time 15.0 day
[40] = tested on: HepG2; assay: Improvement of lipid metabolism in palmitic acid and oleic acid induced human HepG2 cell model of hepatic steatosis assessed as reduction in triglyceride level at 25 uM preincubated with palmitic acid and oleic acid for 48 hrs followed by compound addition and measured after 24 hrs; assay type: functional, cell-based
[41] = target: T1, Oxysterols receptor LXR-alpha (Homo sapiens); assay: Agonist activity at LXRalpha in human HepG2 cells assessed as upregulation of CYP7A1 mRNA expression by measuring fold change at 25 uM incubated for 24 hrs by RT-qPCR analysis; assay type: cell-based; conditions: filed as agonist
[42] = target: T1, Oxysterols receptor LXR-alpha (Homo sapiens); assay: Agonist activity at LXRalpha in human HepG2 cells assessed as upregulation of ABCA1 mRNA expression by measuring fold change at 25 uM incubated for 24 hrs by RT-qPCR analysis; assay type: cell-based; conditions: filed as agonist
[43] = tested on: Mus musculus; assay: Antihypercholesterolemic activity against high cholesterol diet induced C57BL/6J mouse assessed as reduction in total cholesterol level in plasma at 300 microg/kg, ip administered every 2 days for 15 days; assay type: functional, organism-based; conditions: dose 300.0 µg/kg, time 15.0 day

COc1ccc2c(C[C@@H]3NC(=O)[C@@H]4CCCN4C3=O)c(CC=C(C)C)[nH]c2c1 [TRYPROSTATIN A]
7.99: pKd [23]
5.01: fold change (FC) [41]
inactive: Activity [5] | Activity [6] | Activity [10] | Activity [19] | Activity [20] | Activity [22] | Activity [27] | Activity [29] | Activity [31] | Activity [34]
2.05: fold change (FC) [42]
> 50000 nM: IC50 at 24 h [38]
active: Activity [1] | Activity [2] | Activity [3] | Activity [4] | Activity [7] | Activity [8] | Activity [9] | Activity [11] | Activity [12] | Activity [13] | Activity [14] | Activity [15] | Activity [16] | Activity [17] | Activity [18] | Activity [21] | Activity [24] | Activity [25] | Activity [26] | Activity [28] | Activity [30] | Activity [32] | Activity [33] | Activity [35] | Activity [36] | Activity [37] | Activity [39] | Activity [40] | Activity [43]
